Series [1] can be described thus: Aqueous solubility analysis in MOPS buffer. Conditions: thermodynamic from solid, after 24 hours in 10 mM aqueous MOPS buffer, pH 7.2. The format is physicochemical. The method, then:
A 2 dram vial was loaded with ˜0.5 mg of a thiostrepton derivative and suspended in ˜4 mL of aqueous 10 mM MOPS buffer (pKa 7.2). The suspension was stirred vigorously for 24 h to ensure equilibration, then filtered through a […] centrifuge filtration unit. A 3.0 mL aliquot was concentrated, and the dried residue was diluted with 0.30 mL of 1:1 1,4-dioxane/H2O (10× original concentration necessitated by detection limits). The total UV absorbance (200-300 nm) was measured in triplicate by UPLC runs with a photodiode array detector. A calibration curve for each compound was created using data points from 3 trials each of concentrations in 1:1 1,4-dioxane/H2O ranging from […]. These concentrations were plotted against their respective average absorbances. The experimental concentration of each compound was calculated by dividing the found μg/mL value by the residue concentration factor of 10 to yield the actual solubility value.

A further series deals with E. faecium MMX 485 VRE. Nature of the series: MIC broth microdilution. The format is cell-based. Conditions: Enterococcus faecium. As for the experimental part:
(§1) Twenty-four test agents were shipped to Micromyx and stored at −20° C. until assayed. The compounds were dissolved in 100% DMSO at 6.46 mg/mL prior to testing. Comparator drugs were supplied by Micromyx and were handled as described below:
(§2) The test organisms for the assay were recent clinical isolates or reference strains acquired from the American Type Culture Collection (ATCC; Manassas, Va.). Upon receipt, the isolates were streaked onto Trypticase Soy Agar II+5% sheep blood (TSAB). Colonies were harvested from the plates and a cell suspension was prepared in Trypticase Soy Broth containing cryoprotectant. Aliquots were then frozen at −80° C. Prior to the assay, the frozen seeds of all bacterial isolates to be tested were thawed and streaked for isolation onto TSAB (BD/BBL, Sparks, Md.; Lot No. 9011894), and were incubated overnight at 35° C.
(§3) The test medium for all isolates was cation-adjusted Mueller Hinton broth (CAMHB; BD/BBL; Lot No. 8190586). CAMHB (Cation Adjusted Mueller Hinton Broth) was supplemented with 3% (v/v) lysed horse blood (LHB; Hemostat, Dixon, Calif.; Lot No. 474990) for the testing of streptococci.
(§4) MIC values were determined using a broth microdilution method as recommended by CLSI. Automated liquid handlers (Multidrop 384, Labsystems, Helsinki, Finland; Biomek 2000 and Biomek F/X, Beckman Coulter, Fullerton Calif.) were used to conduct serial dilutions and make liquid transfers.
(§5) The wells of standard 96-well microdilution plates (Costar 3795, Corning Inc., Corning, N.Y.) were filled with 150 μL of the appropriate diluent in columns 2-12 on the Multidrop 384 (DMSO for the thiostrepton analogs, deionized H2O for vancomycin and ceftazidime). These plates were used to prepare the drug “mother plate” which provided the serial drug dilutions for the replicate “daughter plates”. The compounds (300 μL) were dispensed at 101× the highest concentration to be tested into the appropriate row of the “mother plate”. The Biomek 2000 was used to transfer 150 μL of each stock solution from the wells in Column 1 of the mother plate to make ten subsequent 2-fold serial dilutions. The wells of Column 12 contained no drug and served as the organism growth control wells. The daughter plates were loaded with 190 μL of test medium using the Multidrop 384.
(§6) The daughter plates were prepared on the Biomek F/X instrument which transferred […] of drug solution from each well of the mother plate to each corresponding well of each daughter plate in a single step. The wells of the daughter plates ultimately contained 190 μL of media, 2 μL of drug solution, and 10 μL of inoculum prepared as described below. The final concentration of DMSO (if used as a solvent) in the test well was 1%.
(§7) A standardized inoculum of each organism was prepared per CLSI methods. A suspension of organisms from a fresh plate was prepared in CAMHB to equal the turbidity of a 0.5 McFarland standard. The suspensions were diluted 1:20 in CAMHB, or in the case of streptococci CAMHB with LHB. The inoculum for each organism was dispensed into sterile reservoirs divided by length (Beckman Coulter), and the Biomek 2000 was used to inoculate the plates. Daughter plates were placed on the Biomek 2000 work surface reversed so that inoculation took place from low to high drug concentration. The Biomek 2000 delivered 10 μL of standardized inoculum into each well. These dilutions yielded a final cell concentration in the daughter plates of approximately 5.0×10^5 CFU/mL.
(§8) Plates were stacked 3 high, covered with a lid on the top plate, placed in plastic bags, and incubated at 35° C. for 16-20 hr for all organisms except streptococci which were incubated for 20-24 hr. Following incubation, the microplates were removed from the incubator and viewed from the bottom using a plate viewer. The MIC was read and recorded as the lowest concentration of drug that inhibited visible growth of the organism. […]
Background: Broth dilution looks for growth in wells or tubes with falling amounts of substance.

Series [2] concerns E. faecalis ATCC 29212 VSE. Description: MIC broth microdilution. In kind it is cell-based. As to conditions: Enterococcus faecalis, ATCC29212. The method, then:
as §1, §2, §3, §4, §5, §6, §7, §8

In series [3] the test system is S. aureus ATCC 29213 MSSA. Description: MIC broth microdilution. As to conditions: Staphylococcus aureus. In kind it is cell-based. As for the experimental part:
as §1, §2, §3, §4, §5, §6, §7, §8

For a further series, the system named is E. coli ATCC 25922. Nature of the series: MIC broth microdilution. The format is cell-based. As to conditions: Escherichia coli, ATCC25922. As for the experimental part: as §1, §2, §3, §4, §5, §6, §7, §8
The test system of the next series is E. faecalis MMX 486 VRE. Nature of the series: MIC broth microdilution. In kind it is cell-based. Conditions: Enterococcus faecalis. The method, then:
as §1, §2, §3, §4, §5, §6, §7, §8

The test system of series [4] is S. pneumoniae ATCC 49619 PISP. Description: MIC broth microdilution. In kind it is cell-based. As to conditions: Streptococcus pneumoniae, ATCC49619, 20 h. As for the experimental part:
as §1, §2, §3, §4, §5, §6, §7, §8

The test system of the next series is E. faecium MMX 708 VSE. Nature of the series: MIC broth microdilution. The format is cell-based. Conditions: Enterococcus faecium, MMX708VSE. The method, then:
as §1, §2, §3, §4, §5, §6, §7, §8

A further series relates to S. pyogenes ATCC 19615. Description: MIC broth microdilution. The format is cell-based. Conditions: Streptococcus pyogenes, ATCC19615, 20 h. The method, then:
as §1, §2, §3, §4, §5, §6, §7, §8

For the next series, the system named is S. aureus MMX 8088 MRSA. Nature of the series: MIC broth microdilution. In kind it is cell-based. As to conditions: Staphylococcus aureus. The method, then:
as §1, §2, §3, §4, §5, §6, §7, §8

The mark [5] stands for this setting: E. faecium MMX 485 VRE, CAMHB, read-out: MIC.
[6] abbreviates: E. faecalis ATCC 29212 VSE, CAMHB, read-out: MIC.
The mark [7] stands for this setting: S. aureus ATCC 29213 MSSA, CAMHB, read-out: MIC.
Where [8] appears, read: E. coli ATCC 25922, CAMHB, read-out: MIC.
Setting [9] is: E. faecalis MMX 486 VRE, CAMHB, read-out: MIC.
The mark [10] stands for this setting: S. pneumoniae ATCC 49619 PISP, CAMHB with 3% lysed horse blood, read-out: MIC.
The mark [11] stands for this setting: E. faecium MMX 708 VSE, CAMHB, read-out: MIC.
Where [12] appears, read: S. pyogenes ATCC 19615, CAMHB with 3% lysed horse blood, read-out: MIC.
Setting [13] is: S. aureus MMX 8088 MRSA, CAMHB, read-out: MIC.

Structures are written as SMILES. In brackets after ≈: the same amount, converted by molar mass. Where two headings read alike, the source gives them in different places.

These results are taken from US20220315624A1, “THIOSTREPTON ANALOGS AND METHODS OF MAKING AND USING SAME” (YALE UNIVERSITY, priority 2019, published 2022).

Consider `C=C(NC(=O)c1csc(C2=N[C@@H]3c4csc(n4)[C@H]4NC(=O)c5csc(n5)[C@H]([C@](C)(O)[C@@H](C)O)NC(=O)C5CSC(=N5)/C(=C/C)NC(=O)[C@H]([C@@H](C)O)NC(=O)c5csc(n5)[C@]3(CC2)NC(=O)[C@H](C)NC(=O)C(=C)NC(=O)[C@H](C)NC(=O)[C@H]([C@@H](C)CC)N[C@@H]2C=Cc3c([C@H](C)O)cc(nc3[C@H]2O)C(=O)O[C@@H]4C)n1)C(=O)NC(=CNC(=O)COC)C(N)=O` [RJS-06], for which the concentration in solution in [1] (aqueous 10 mM MOPS buffer) (solubility at 24 h) came to 28 µg/mL (≈ 16 µM). Moreover, the MIC (commonly the smallest concentration in the dilution series that meets the test's criterion for growth inhibition) in the series on E. faecium MMX 485 VRE (setting [5]) was 0.5 µg/mL (≈ 0.285 µM); in series [2] (setting [6]), 1 µg/mL (≈ 0.571 µM); in series [3] (setting [7]), 0.5 µg/mL (≈ 0.285 µM); in the series with E. coli ATCC 25922 (setting [8]) it was above 64 µg/mL; with E. faecalis MMX 486 VRE (setting [9]), 1 µg/mL (≈ 0.571 µM); in series [4] (setting [10]), 0.015 µg/mL (≈ 0.00856 µM). The results for the MIC in the series with E. faecium MMX 708 VSE (setting [11]), in the series with S. pyogenes ATCC 19615 (setting [12]) and with S. aureus MMX 8088 MRSA (setting [13]) were 1 µg/mL (≈ 0.571 µM), 0.008 µg/mL (≈ 0.00457 µM) and 1 µg/mL (≈ 0.571 µM), respectively.
As to `C=C(NC(=O)c1csc(C2=N[C@@H]3c4csc(n4)[C@H]4NC(=O)c5csc(n5)[C@H]([C@](C)(O)[C@@H](C)O)NC(=O)C5CSC(=N5)/C(=C/C)NC(=O)[C@H]([C@@H](C)O)NC(=O)c5csc(n5)[C@]3(CC2)NC(=O)[C@H](C)NC(=O)C(=C)NC(=O)[C@H](C)NC(=O)[C@H]([C@@H](C)CC)N[C@@H]2C=Cc3c([C@H](C)O)cc(nc3[C@H]2O)C(=O)O[C@@H]4C)n1)C(=O)NC(=CNC(=O)c1cccc(C(C)=O)c1)C(N)=O` [RJS-05], the solubility (in general, the dissolved amount per volume that the medium holds) at 24 h in series [1] (aqueous 10 mM MOPS buffer) turned out to be 1.1 µg/mL (≈ 0.602 µM). Further, the MIC in the series on E. faecium MMX 485 VRE (setting [5]) is 0.5 µg/mL (≈ 0.274 µM); in series [2] (setting [6]), 1 µg/mL (≈ 0.548 µM); in series [3] (setting [7]) it was 1 µg/mL (≈ 0.548 µM); in the series with E. coli ATCC 25922 (setting [8]), above 64 µg/mL; with E. faecalis MMX 486 VRE (setting [9]), 1 µg/mL (≈ 0.548 µM); in series [4] (setting [10]), 0.004 µg/mL (≈ 0.00219 µM). In addition, the values for the MIC in the series with E. faecium MMX 708 VSE (setting [11]), with S. pyogenes ATCC 19615 (setting [12]) and with S. aureus MMX 8088 MRSA (setting [13]) were 1 µg/mL (≈ 0.548 µM), 0.004 µg/mL (≈ 0.00219 µM) and 2 µg/mL (≈ 1.1 µM), respectively.
In series [1], `C=C(NC(=O)c1csc(C2=N[C@@H]3c4csc(n4)[C@H]4NC(=O)c5csc(n5)[C@H]([C@](C)(O)[C@@H](C)O)NC(=O)C5CSC(=N5)/C(=C/C)NC(=O)[C@H]([C@@H](C)O)NC(=O)c5csc(n5)[C@]3(CC2)NC(=O)[C@H](C)NC(=O)C(=C)NC(=O)[C@H](C)NC(=O)[C@H]([C@@H](C)CC)N[C@@H]2C=Cc3c([C@H](C)O)cc(nc3[C@H]2O)C(=O)O[C@@H]4C)n1)C(=O)NC(=CNC(=O)c1ccccc1)C(N)=O` [RJS-02] showed a solubility at 24 h below 1 µg/mL. For the same compound, the MIC against E. faecium MMX 485 VRE (VRE) was 0.5 µg/mL (≈ 0.28 µM); in series [2], 1 µg/mL (≈ 0.561 µM); in series [3], 1 µg/mL (≈ 0.561 µM); in the series with E. coli ATCC 25922, above 64 µg/mL; against E. faecalis MMX 486 VRE (VRE), 1 µg/mL (≈ 0.561 µM); in [4], 0.008 µg/mL (≈ 0.00448 µM). Also, the results for the MIC against E. faecium MMX 708 VSE, against S. pyogenes ATCC 19615 and against S. aureus MMX 8088 MRSA (MRSA) were 0.5 µg/mL (≈ 0.28 µM), 0.002 µg/mL (≈ 0.00112 µM) and 2 µg/mL (≈ 1.12 µM), respectively.
